Measurements taken from patent US7015215B2, “Pyrrolo[2,1-c][1,4] benzodiazepines compounds and process thereof” (Council of Scientific and Industrial Research, priority 2003, dated 2006).

Tests used:
UACC-257 = assay: NCI SRB cytotoxicity, Melanoma UACC-257; type: cell-based, human; conditions: UACC-257, Melanoma, 48 h
Protocol: (§1) Biological Activity: In vitro biological activity studies were carried out at National Cancer Institute (U.S.A.).
(§2) For each compound, dose response curves for each cell line were measured at a minimum of five concentrations at 10 fold dilutions. A protocol of 48 h continuous drug exposure was used, and a sulforhodamine B (SRB) protein assay was used to estimate cell viability or growth. The concentration causing 50% cell growth inhibition (GI50), total cell growth inhibition (TGI, 0% growth) and 50% cell death (LC50, −50% growth) compared with the control was calculated.

SNB-75 = assay: NCI SRB cytotoxicity, CNS SNB-75; type: cell-based, human; conditions: SNB-75, CNS, 48 h
Protocol: as §1, §2

BT-549 = assay: NCI SRB cytotoxicity, Breast BT-549; type: cell-based, human; conditions: BT-549, Breast, 48 h
Protocol: as §1, §2

human tumor cell lines = assay: NCI in vitro cytotoxicity SRB assay, mean graph midpoints over the panel; type: cell-based; conditions: 48 h continuous exposure
Protocol: as §1, §2

OVCAR-3 = assay: NCI SRB cytotoxicity, Ovarian OVCAR-3; type: cell-based, human; conditions: OVCAR-3, Ovarian, 48 h
Protocol: as §1, §2

EKVX = assay: NCI SRB cytotoxicity, Non-small-cell lung EKVX; type: cell-based, human; conditions: 48 h
Protocol: as §1, §2

NCI-H226 = assay: NCI SRB cytotoxicity, Non-small-cell lung NCI-H226; type: cell-based, human; conditions: 48 h
Protocol: as §1, §2

A498 = assay: NCI SRB cytotoxicity, Renal A498; type: cell-based, human; conditions: 48 h
Protocol: as §1, §2

DU-145 = assay: NCI SRB cytotoxicity, Prostate DU-145; type: cell-based, human; conditions: DU-145, Prostate, 48 h
Protocol: as §2

SK-MEL-2 = assay: NCI SRB cytotoxicity, Melanoma SK-MEL-2; type: cell-based, human; conditions: SK-MEL-2, Melanoma, 48 h
Protocol: as §1, §2

SK-MEL-5 = assay: NCI SRB cytotoxicity, Melanoma SK-MEL-5; type: cell-based, human; conditions: SK-MEL-5, Melanoma, 48 h
Protocol: as §1, §2

HS578T = assay: NCI SRB cytotoxicity, Breast HS578T; type: cell-based, human; conditions: 48 h
Protocol: as §1, §2

MDA-MB-435 = assay: NCI SRB cytotoxicity, Breast MDA-MB-435; type: cell-based, human; conditions: MDA-MB-435, Breast, 48 h
Protocol: as §1, §2

MOLT-4 = assay: NCI SRB cytotoxicity, Leukemia MOLT-4; type: cell-based, human; conditions: MOLT-4, Leukemia, 48 h
Protocol: as §1, §2

NCI-H322 = assay: NCI SRB cytotoxicity, Non-small-cell lung NCI-H322; type: cell-based, human; conditions: 48 h
Protocol: as §1, §2

KM-12 = assay: NCI SRB cytotoxicity, Colon KM-12; type: cell-based, human; conditions: KM-12, Colon, 48 h
Protocol: as §1, §2

RPMI-8226 = assay: NCI SRB cytotoxicity, Leukemia RPMI-8226; type: cell-based, human; conditions: RPMI-8226, Leukemia, 48 h
Protocol: as §2

786-0 = assay: NCI SRB cytotoxicity, Renal 786-0; type: cell-based, human; conditions: 786-0, Renal, 48 h
Protocol: as §1, §2

K-62 = assay: NCI SRB cytotoxicity, Leukemia K-62; type: cell-based, human; conditions: K-62, Leukemia, 48 h
Protocol: as §1, §2

NCI-H23 = assay: NCI SRB cytotoxicity, Non-small-cell lung NCI-H23; type: cell-based, human; conditions: 48 h
Protocol: as §1, §2

A549/ATCC = assay: NCI SRB cytotoxicity, Non-small-cell lung A549/ATCC; type: cell-based, human; conditions: 48 h
Protocol: as §1, §2

SW-620 = assay: NCI SRB cytotoxicity, Colon SW-620; type: cell-based, human; conditions: SW-620, Colon, 48 h
Protocol: as §1, §2

MCF7 = assay: NCI SRB cytotoxicity, Breast MCF7; type: cell-based, human; conditions: 48 h
Protocol: as §1, §2

HOP-92 = assay: NCI SRB cytotoxicity, Non-small-cell lung HOP-92; type: cell-based, human; conditions: HOP-92, Non-small-cell lung, 48 h
Protocol: as §1, §2

IGROVI = assay: NCI SRB cytotoxicity, Ovarian IGROVI; type: cell-based, human; conditions: 48 h
SK-MEL-28 = assay: NCI SRB cytotoxicity, Melanoma SK-MEL-28; type: cell-based, human; conditions: SK-MEL-28, Melanoma, 48 h
Protocol: as §1, §2

M14 = assay: NCI SRB cytotoxicity, Melanoma M14; type: cell-based, human; conditions: 48 h
Protocol: as §1, §2

OVCAR-5 = assay: NCI SRB cytotoxicity, Ovarian OVCAR-5; type: cell-based, human; conditions: OVCAR-5, Ovarian, 48 h
Protocol: as §1, §2

UO-31 = assay: NCI SRB cytotoxicity, Renal UO-31; type: cell-based, human; conditions: UO-31, Renal, 48 h
Protocol: as §2

SN12C = assay: NCI SRB cytotoxicity, Renal SN12C; type: cell-based, human; conditions: 48 h
Protocol: as §1, §2

TK-10 = assay: NCI SRB cytotoxicity, Renal TK-10; type: cell-based, human; conditions: TK-10, Renal, 48 h
Protocol: as §1, §2

SF-268 = assay: NCI SRB cytotoxicity, CNS SF-268; type: cell-based, human; conditions: SF-268, CNS, 48 h
Protocol: as §1, §2

HL-60(TB) = conditions: Leukemia, 48 h, SRB
Protocol: as §1, §2

PC-3 = assay: NCI SRB cytotoxicity, Prostate PC-3; type: cell-based, human; conditions: PC-3, Prostate, 48 h
Protocol: as §2

RXF 393 = assay: NCI SRB cytotoxicity, Renal RXF 393; type: cell-based, human; conditions: RXF 393, Renal, 48 h
Protocol: as §2

UACC-62 = assay: NCI SRB cytotoxicity, Melanoma UACC-62; type: cell-based, human; conditions: UACC-62, Melanoma, 48 h
Protocol: as §1, §2

HCT-116 = assay: NCI SRB cytotoxicity, Colon HCT-116; type: cell-based, human; conditions: HCT-116, Colon, 48 h
Protocol: as §1, §2

`COc1cc2c(cc1OCCCN1CCN(CCCOc3cc4c(cc3OC)C(=O)N3CCC[C@H]3C=N4)CC1)N=C[C@@H]1CCCN1C2=O` [Compound VIb, 1,1′-{[(bispropane-1,N-diyl)piperazine]dioxy}bis[(11aS)-7-methoxy-1,2,3,11a-tetrahydro-5H-pyrrolo[2,1-c][1,4]benzodiazepin-5-one]] was tested. Which “Log GI 50” value (UACC-257) did it give?
The value was −4.45 mol/L.

What about the “Log LC 50” value (UACC-257) of the same compound?
The value was −4.00 mol/L.

What about the “Log GI 50” value (SNB-75) of the same compound?
The value was −4.61 mol/L.

And the “Log LC 50” value (SNB-75)?
The value was −4.00 mol/L.

What about the “Log GI 50” value (BT-549) of the same compound?
The value was −5.77 mol/L.

What about the “Log LC 50” value (BT-549) of the same compound?
The value was −4.00 mol/L.

And the “Log10 GI50 mean graph midpoint (MG_MID)” value (human tumor cell lines)?
The value was −5.19.

And the “Log10 LC50 mean graph midpoint (MG_MID)” value (human tumor cell lines)?
The value was −4.01.

And the “Log10 TGI mean graph midpoint (MG_MID)” value (human tumor cell lines)?
The value was −4.22.

What about the “Log GI 50” value (OVCAR-3) of the same compound?
The value was −5.47 mol/L.

What about the “Log LC 50” value (OVCAR-3) of the same compound?
Its value is −4.00 mol/L.

What about the “Log GI 50” value (EKVX) of the same compound?
Its value is −4.47 mol/L.

And the “Log LC 50” value (EKVX)?
Its value is −4.00 mol/L.

What about the “Log GI 50” value (NCI-H226) of the same compound?
The value was −4.34 mol/L.

What about the “Log LC 50” value (NCI-H226) of the same compound?
Its value is −4.00 mol/L.

And the “Log GI 50” value (A498)?
The value was −5.73 mol/L.

What about the “Log LC 50” value (A498) of the same compound?
The value was −4.00 mol/L.

What about the “Log GI 50” value (DU-145) of the same compound?
Its value is −5.62 mol/L.

What about the “Log LC 50” value (DU-145) of the same compound?
The value was −4.00 mol/L.

What about the “Log GI 50” value (SK-MEL-2) of the same compound?
Its value is −4.82 mol/L.

And the “Log LC 50” value (SK-MEL-2)?
The value was −4.00 mol/L.

And the “Log GI 50” value (SK-MEL-5)?
Its value is −5.66 mol/L.

What about the “Log LC 50” value (SK-MEL-5) of the same compound?
Its value is −4.50 mol/L.

And the “Log GI 50” value (HS578T)?
The value was −6.13 mol/L.

What about the “Log LC 50” value (HS578T) of the same compound?
The value was −4.00 mol/L.

What about the “Log GI 50” value (MDA-MB-435) of the same compound?
The value was −5.37 mol/L.

What about the “Log LC 50” value (MDA-MB-435) of the same compound?
Its value is −4.09 mol/L.

What about the “Log GI 50” value (MOLT-4) of the same compound?
The value was −6.50 mol/L.

What about the “Log LC 50” value (MOLT-4) of the same compound?
Its value is −4.08 mol/L.

And the “Log GI 50” value (NCI-H322)?
Its value is −4.57 mol/L.

And the “Log LC 50” value (NCI-H322)?
The value was −4.00 mol/L.

And the “Log GI 50” value (KM-12)?
Its value is −4.64 mol/L.

What about the “Log LC 50” value (KM-12) of the same compound?
The value was −4.00 mol/L.

What about the “Log GI 50” value (RPMI-8226) of the same compound?
The value was −6.73 mol/L.

What about the “Log LC 50” value (RPMI-8226) of the same compound?
The value was −4.00 mol/L.

What about the “Log GI 50” value (786-0) of the same compound?
The value was −5.30 mol/L.

And the “Log LC 50” value (786-0)?
Its value is −4.00 mol/L.

And the “Log GI 50” value (K-62)?
Its value is −5.76 mol/L.

What about the “Log LC 50” value (K-62) of the same compound?
Its value is −4.00 mol/L.

And the “Log GI 50” value (NCI-H23)?
The value was −4.89 mol/L.

What about the “Log LC 50” value (NCI-H23) of the same compound?
Its value is −4.00 mol/L.

And the “Log GI 50” value (A549/ATCC)?
The value was −4.37 mol/L.

And the “Log LC 50” value (A549/ATCC)?
The value was −4.00 mol/L.

And the “Log GI 50” value (SW-620)?
Its value is −6.23 mol/L.

And the “Log LC 50” value (SW-620)?
The value was −4.00 mol/L.

What about the “Log GI 50” value (MCF7) of the same compound?
Its value is −6.01 mol/L.

What about the “Log LC 50” value (MCF7) of the same compound?
The value was −4.00 mol/L.

What about the “Log GI 50” value (HOP-92) of the same compound?
Its value is −6.81 mol/L.

What about the “Log LC 50” value (HOP-92) of the same compound?
Its value is −4.00 mol/L.

What about the “Log GI 50” value (IGROVI) of the same compound?
Its value is −5.26 mol/L.

What about the “Log LC 50” value (IGROVI) of the same compound?
Its value is −4.00 mol/L.

And the “Log GI 50” value (SK-MEL-28)?
The value was −4.48 mol/L.

And the “Log LC 50” value (SK-MEL-28)?
The value was −4.00 mol/L.

And the “Log GI 50” value (M14)?
Its value is −5.55 mol/L.

What about the “Log LC 50” value (M14) of the same compound?
The value was −4.00 mol/L.

What about the “Log GI 50” value (OVCAR-5) of the same compound?
The value was −5.06 mol/L.

And the “Log LC 50” value (OVCAR-5)?
Its value is −4.00 mol/L.

And the “Log GI 50” value (UO-31)?
Its value is −4.27 mol/L.

What about the “Log LC 50” value (UO-31) of the same compound?
Its value is −4.00 mol/L.

What about the “Log GI 50” value (SN12C) of the same compound?
Its value is −4.44 mol/L.

And the “Log LC 50” value (SN12C)?
Its value is −4.00 mol/L.

What about the “Log GI 50” value (TK-10) of the same compound?
The value was −5.10 mol/L.

And the “Log LC 50” value (TK-10)?
The value was −4.00 mol/L.

And the “Log GI 50” value (SF-268)?
The value was −5.52 mol/L.

And the “Log GI 50” value (HL-60(TB))?
Its value is −6.66 mol/L.

What about the “Log LC 50” value (HL-60(TB)) of the same compound?
The value was −4.00 mol/L.

And the “Log GI 50” value (PC-3)?
Its value is −5.53 mol/L.

What about the “Log LC 50” value (PC-3) of the same compound?
Its value is −4.00 mol/L.

And the “Log GI 50” value (RXF 393)?
Its value is −5.68 mol/L.

What about the “Log LC 50” value (RXF 393) of the same compound?
The value was −4.09 mol/L.

And the “Log GI 50” value (UACC-62)?
The value was −4.68 mol/L.

And the “Log LC 50” value (UACC-62)?
Its value is −4.00 mol/L.

What about the “Log GI 50” value (HCT-116) of the same compound?
Its value is −4.92 mol/L.

What about the “Log LC 50” value (HCT-116) of the same compound?
Its value is −4.00 mol/L.
